# Measurements: ChEMBL document CHEMBL4330132, “5-Keto-3-cyano-2,4-diaminothiophenes as selective maternal embryonic leucine zipper kinase inhibitors” (Bioorg Med Chem Lett, 2019)
# Legend:
# [1] = molecular target: Serine/threonine-protein kinase 36 (Homo sapiens) (UniProt Q9NRP7); assay: Binding affinity to wild-type human partial length STK36 (M1 to T271 residues) expressed in bacterial expression system assessed as residual binding level at 1 uM by Kinomescan method relative to control
# [2] = system: Epidermal growth factor receptor (Homo sapiens), P00533 [T790M]; assay: Binding affinity to human partial length EGFR T790M mutant (R669 to G1022 residues) expressed in mammalian expression system assessed as residual binding level at 1 uM by Kinomescan method relative to control
# [3] = molecular target: Serine/threonine-protein kinase NIM1 (Homo sapiens) (UniProt Q8IY84); assay: Binding affinity to wild-type human partial length NIM1 (Q44 to N355 residues) expressed in mammalian expression system assessed as residual binding level at 1 uM by Kinomescan method relative to control
# [4] = molecular target: Dual specificity mitogen-activated protein kinase kinase 1 (Homo sapiens) (UniProt Q02750); assay: Binding affinity to wild-type human full length MEK1 (M1 to V393 residues) expressed in mammalian expression system assessed as residual binding level at 1 uM by Kinomescan method relative to control
# [5] = molecular target: Ephrin type-B receptor 3 (Homo sapiens) (UniProt P54753); assay: Binding affinity to wild-type human partial length EPHB3 (Q599 to T928 residues) expressed in bacterial expression system assessed as residual binding level at 1 uM by Kinomescan method relative to control
# [6] = molecular target: Homeodomain-interacting protein kinase 3 (Homo sapiens) (UniProt Q9H422); assay: Binding affinity to wild-type human partial length HIPK3 (M153 to N562 residues) expressed in mammalian expression system assessed as residual binding level at 1 uM by Kinomescan method relative to control
# [7] = molecular target: RAC-beta serine/threonine-protein kinase (Homo sapiens) (UniProt P31751); assay: Binding affinity to wild-type human partial length AKT2 expressed in bacterial expression system assessed as residual binding level at 1 uM by Kinomescan method relative to control
# [8] = molecular target: Mitogen-activated protein kinase 4 (Homo sapiens) (UniProt P31152); assay: Binding affinity to wild-type human partial length ERK4 (M1 to L365 residues) expressed in bacterial expression system assessed as residual binding level at 1 uM by Kinomescan method relative to control
# [9] = molecular target: Phosphatidylinositol 4,5-bisphosphate 3-kinase catalytic subunit beta isoform (Homo sapiens) (UniProt P42338); assay: Binding affinity to wild-type human partial length PIK3CB (P118 to S1070 residues) expressed in mammalian expression system assessed as residual binding level at 1 uM by Kinomescan method relative to control
# [10] = molecular target: TGF-beta receptor type-2 (Homo sapiens) (UniProt P37173); assay: Binding affinity to wild-type human partial length TGFBR2 (I218 to K567 residues) expressed in bacterial expression system assessed as residual binding level at 1 uM by Kinomescan method relative to control
# [11] = molecular target: Mitogen-activated protein kinase kinase kinase 3 (Homo sapiens) (UniProt Q99759); assay: Binding affinity to wild-type human partial length MAP3K3 (E320 to Y626 residues) expressed in mammalian expression system assessed as residual binding level at 1 uM by Kinomescan method relative to control
# [12] = molecular target: Epidermal growth factor receptor (Homo sapiens) (UniProt P00533); assay: Binding affinity to wild-type human partial length EGFR (R669 to V1011 residues) expressed in bacterial expression system assessed as residual binding level at 1 uM by Kinomescan method relative to control
# [13] = molecular target: Serine/threonine-protein kinase 25 (Homo sapiens) (UniProt O00506); assay: Binding affinity to wild-type human partial length YSK1 (V14 to H295 residues) expressed in bacterial expression system assessed as residual binding level at 1 uM by Kinomescan method relative to control
# [14] = molecular target: LIM domain kinase 1 (Homo sapiens) (UniProt P53667); assay: Binding affinity to wild-type human full length LIMK1 (M1 to D647 residues) expressed in bacterial expression system assessed as residual binding level at 1 uM by Kinomescan method relative to control
# [15] = molecular target: Non-receptor tyrosine-protein kinase TYK2 (Homo sapiens) (UniProt P29597); assay: Binding affinity to wild-type human partial length TYK2 JH2 pseudokinase domain (G556 to D888 residues) expressed in mammalian expression system assessed as residual binding level at 1 uM by Kinomescan method relative to control
# [16] = molecular target: Insulin receptor-related protein (Homo sapiens) (UniProt P14616); assay: Binding affinity to wild-type human partial length INSRR (R950 to E1278 residues) expressed in bacterial expression system assessed as residual binding level at 1 uM by Kinomescan method relative to control
# [17] = molecular target: Tyrosine-protein kinase ABL1 (Homo sapiens) (UniProt P00519); assay: Binding affinity to wild-type human phosphorylated ABL1 (S229 to K512 residues) expressed in mammalian expression system assessed as residual binding level at 1 uM by Kinomescan method relative to control
# [18] = molecular target: Hepatocyte growth factor receptor (Homo sapiens) (UniProt P08581); assay: Binding affinity to wild-type human partial length MET (D1010 to S1367 residues) expressed in bacterial expression system assessed as residual binding level at 1 uM by Kinomescan method relative to control
# [19] = molecular target: Ribosomal protein S6 kinase alpha-2 (Homo sapiens) (UniProt Q15349); assay: Binding affinity to wild-type human partial length N-terminal RSK3 kinase domain 1 (M1 to Q385 residues) expressed in bacterial expression system assessed as residual binding level at 1 uM by Kinomescan method relative to control
# [20] = molecular target: Serine/threonine-protein kinase LATS2 (Homo sapiens) (UniProt Q9NRM7); assay: Binding affinity to wild-type human partial length LATS2 (Q641 to V1088 residues) expressed in mammalian expression system assessed as residual binding level at 1 uM by Kinomescan method relative to control
# [21] = molecular target: ALK tyrosine kinase receptor (Homo sapiens) (UniProt Q9UM73); assay: Binding affinity to wild-type human partial length ALK (I1088 to E1409 residues) expressed in mammalian expression system assessed as residual binding level at 1 uM by Kinomescan method relative to control
# [22] = molecular target: Rhodopsin kinase GRK7 (Homo sapiens) (UniProt Q8WTQ7); assay: Binding affinity to wild-type human full length GRK7 (M1 to L553 residues) expressed in mammalian expression system assessed as residual binding level at 1 uM by Kinomescan method relative to control
# [23] = molecular target: Serine/threonine-protein kinase PAK 6 (Homo sapiens) (UniProt Q9NQU5); assay: Binding affinity to wild-type human partial length PAK6 (N298 to C681 residues) expressed in bacterial expression system assessed as residual binding level at 1 uM by Kinomescan method relative to control
# [24] = molecular target: Cyclin-dependent kinase 3 (Homo sapiens) (UniProt Q00526); assay: Binding affinity to wild-type human full length CDK3 (M1 to H305 residues) expressed in bacterial expression system assessed as residual binding level at 1 uM by Kinomescan method relative to control
# [25] = molecular target: NT-3 growth factor receptor (Homo sapiens) (UniProt Q16288); assay: Binding affinity to wild-type human partial length TRKC (Q531 to G825 residues) expressed in mammalian expression system assessed as residual binding level at 1 uM by Kinomescan method relative to control
# NT-3 growth factor receptor (Homo sapiens), sequence (Q16288 32-839 limits assumed): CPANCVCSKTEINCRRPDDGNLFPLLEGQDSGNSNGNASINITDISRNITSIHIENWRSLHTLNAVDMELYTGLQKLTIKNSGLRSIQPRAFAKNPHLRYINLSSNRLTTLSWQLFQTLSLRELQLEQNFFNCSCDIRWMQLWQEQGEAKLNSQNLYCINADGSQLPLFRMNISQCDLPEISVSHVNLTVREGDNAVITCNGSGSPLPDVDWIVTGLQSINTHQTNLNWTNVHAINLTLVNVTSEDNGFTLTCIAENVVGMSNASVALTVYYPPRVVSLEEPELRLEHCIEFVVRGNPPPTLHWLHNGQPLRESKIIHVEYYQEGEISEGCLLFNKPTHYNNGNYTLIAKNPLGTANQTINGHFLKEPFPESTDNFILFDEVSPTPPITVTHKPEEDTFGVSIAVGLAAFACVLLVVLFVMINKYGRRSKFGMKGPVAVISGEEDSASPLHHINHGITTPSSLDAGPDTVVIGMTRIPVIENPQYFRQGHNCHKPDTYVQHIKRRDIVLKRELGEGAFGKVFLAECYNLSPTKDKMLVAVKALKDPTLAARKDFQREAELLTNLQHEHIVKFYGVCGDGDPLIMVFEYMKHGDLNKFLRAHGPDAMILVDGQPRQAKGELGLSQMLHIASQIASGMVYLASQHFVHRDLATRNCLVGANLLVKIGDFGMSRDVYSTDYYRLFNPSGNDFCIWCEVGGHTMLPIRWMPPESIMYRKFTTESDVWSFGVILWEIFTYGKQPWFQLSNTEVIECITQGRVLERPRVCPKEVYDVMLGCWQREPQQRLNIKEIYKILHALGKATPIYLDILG
# LIM domain kinase 1 (Homo sapiens), sequence (P53667 whole entry, looked up, the tested form may be a part): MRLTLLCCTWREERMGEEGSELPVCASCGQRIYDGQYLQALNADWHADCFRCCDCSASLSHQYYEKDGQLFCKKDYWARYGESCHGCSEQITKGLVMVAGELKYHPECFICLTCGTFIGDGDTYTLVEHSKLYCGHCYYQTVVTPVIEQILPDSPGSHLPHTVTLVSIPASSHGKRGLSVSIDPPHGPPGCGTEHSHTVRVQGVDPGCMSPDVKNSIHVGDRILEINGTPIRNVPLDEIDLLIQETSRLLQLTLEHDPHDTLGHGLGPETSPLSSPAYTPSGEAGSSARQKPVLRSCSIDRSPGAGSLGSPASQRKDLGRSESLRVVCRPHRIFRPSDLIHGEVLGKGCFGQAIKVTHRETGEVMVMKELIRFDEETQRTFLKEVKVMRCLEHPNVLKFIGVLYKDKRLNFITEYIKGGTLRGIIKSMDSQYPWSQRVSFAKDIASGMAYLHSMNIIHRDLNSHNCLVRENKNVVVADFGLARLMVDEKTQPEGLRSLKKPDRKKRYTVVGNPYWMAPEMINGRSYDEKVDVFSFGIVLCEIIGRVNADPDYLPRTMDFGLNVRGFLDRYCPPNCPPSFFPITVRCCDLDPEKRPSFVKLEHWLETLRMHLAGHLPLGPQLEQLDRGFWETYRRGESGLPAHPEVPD
# Cyclin-dependent kinase 3 (Homo sapiens), sequence (Q00526 whole entry, looked up, the tested form may be a part): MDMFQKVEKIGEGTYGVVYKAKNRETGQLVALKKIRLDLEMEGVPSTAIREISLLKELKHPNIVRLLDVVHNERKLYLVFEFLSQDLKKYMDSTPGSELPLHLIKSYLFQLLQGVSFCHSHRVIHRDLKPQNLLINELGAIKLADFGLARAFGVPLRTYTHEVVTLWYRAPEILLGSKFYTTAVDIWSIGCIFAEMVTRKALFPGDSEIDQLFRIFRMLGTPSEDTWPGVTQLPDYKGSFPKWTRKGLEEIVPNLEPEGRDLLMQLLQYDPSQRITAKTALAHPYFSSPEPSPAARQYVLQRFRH
# Serine/threonine-protein kinase LATS2 (Homo sapiens), sequence (Q9NRM7 whole entry, the tested form may be a part): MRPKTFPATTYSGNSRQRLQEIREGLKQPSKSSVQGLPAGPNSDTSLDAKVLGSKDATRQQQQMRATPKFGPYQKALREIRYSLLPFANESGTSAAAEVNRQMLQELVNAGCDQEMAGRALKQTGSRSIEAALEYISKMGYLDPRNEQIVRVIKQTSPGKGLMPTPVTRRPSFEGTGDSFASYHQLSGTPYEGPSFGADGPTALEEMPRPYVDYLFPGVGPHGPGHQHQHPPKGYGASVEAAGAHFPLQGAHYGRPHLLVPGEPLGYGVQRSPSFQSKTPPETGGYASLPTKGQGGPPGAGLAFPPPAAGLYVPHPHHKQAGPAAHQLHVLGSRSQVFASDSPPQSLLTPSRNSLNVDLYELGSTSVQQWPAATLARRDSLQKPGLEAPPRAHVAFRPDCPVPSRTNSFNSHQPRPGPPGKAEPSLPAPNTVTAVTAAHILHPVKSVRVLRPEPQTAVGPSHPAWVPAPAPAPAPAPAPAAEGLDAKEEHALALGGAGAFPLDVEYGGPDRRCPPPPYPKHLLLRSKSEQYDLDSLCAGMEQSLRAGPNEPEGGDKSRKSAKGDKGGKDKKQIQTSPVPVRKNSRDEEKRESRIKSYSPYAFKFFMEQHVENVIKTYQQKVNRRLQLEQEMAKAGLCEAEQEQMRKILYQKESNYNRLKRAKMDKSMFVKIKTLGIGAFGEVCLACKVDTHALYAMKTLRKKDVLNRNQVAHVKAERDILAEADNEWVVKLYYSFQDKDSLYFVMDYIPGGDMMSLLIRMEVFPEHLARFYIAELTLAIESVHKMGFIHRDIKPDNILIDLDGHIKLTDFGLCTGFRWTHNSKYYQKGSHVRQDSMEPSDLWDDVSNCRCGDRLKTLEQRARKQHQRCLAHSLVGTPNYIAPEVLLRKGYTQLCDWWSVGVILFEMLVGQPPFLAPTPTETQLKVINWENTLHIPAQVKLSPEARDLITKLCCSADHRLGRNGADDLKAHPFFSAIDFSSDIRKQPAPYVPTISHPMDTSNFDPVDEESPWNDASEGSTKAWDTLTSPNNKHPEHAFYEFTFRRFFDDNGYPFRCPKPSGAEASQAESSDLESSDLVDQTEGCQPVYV
# Serine/threonine-protein kinase NIM1 (Homo sapiens), sequence (Q8IY84 whole entry, the tested form may be a part): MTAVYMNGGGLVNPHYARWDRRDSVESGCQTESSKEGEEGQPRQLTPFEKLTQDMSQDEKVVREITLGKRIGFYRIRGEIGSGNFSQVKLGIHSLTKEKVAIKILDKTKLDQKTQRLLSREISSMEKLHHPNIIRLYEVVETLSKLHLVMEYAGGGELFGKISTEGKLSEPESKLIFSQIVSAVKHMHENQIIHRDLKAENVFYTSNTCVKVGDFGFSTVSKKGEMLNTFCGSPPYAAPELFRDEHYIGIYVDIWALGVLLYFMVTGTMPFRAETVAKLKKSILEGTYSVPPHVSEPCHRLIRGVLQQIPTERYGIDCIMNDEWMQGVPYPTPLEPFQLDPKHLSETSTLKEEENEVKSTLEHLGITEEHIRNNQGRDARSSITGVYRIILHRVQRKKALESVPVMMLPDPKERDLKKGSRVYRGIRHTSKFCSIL
# Non-receptor tyrosine-protein kinase TYK2 (Homo sapiens), sequence (P29597 whole entry, the tested form may be a part): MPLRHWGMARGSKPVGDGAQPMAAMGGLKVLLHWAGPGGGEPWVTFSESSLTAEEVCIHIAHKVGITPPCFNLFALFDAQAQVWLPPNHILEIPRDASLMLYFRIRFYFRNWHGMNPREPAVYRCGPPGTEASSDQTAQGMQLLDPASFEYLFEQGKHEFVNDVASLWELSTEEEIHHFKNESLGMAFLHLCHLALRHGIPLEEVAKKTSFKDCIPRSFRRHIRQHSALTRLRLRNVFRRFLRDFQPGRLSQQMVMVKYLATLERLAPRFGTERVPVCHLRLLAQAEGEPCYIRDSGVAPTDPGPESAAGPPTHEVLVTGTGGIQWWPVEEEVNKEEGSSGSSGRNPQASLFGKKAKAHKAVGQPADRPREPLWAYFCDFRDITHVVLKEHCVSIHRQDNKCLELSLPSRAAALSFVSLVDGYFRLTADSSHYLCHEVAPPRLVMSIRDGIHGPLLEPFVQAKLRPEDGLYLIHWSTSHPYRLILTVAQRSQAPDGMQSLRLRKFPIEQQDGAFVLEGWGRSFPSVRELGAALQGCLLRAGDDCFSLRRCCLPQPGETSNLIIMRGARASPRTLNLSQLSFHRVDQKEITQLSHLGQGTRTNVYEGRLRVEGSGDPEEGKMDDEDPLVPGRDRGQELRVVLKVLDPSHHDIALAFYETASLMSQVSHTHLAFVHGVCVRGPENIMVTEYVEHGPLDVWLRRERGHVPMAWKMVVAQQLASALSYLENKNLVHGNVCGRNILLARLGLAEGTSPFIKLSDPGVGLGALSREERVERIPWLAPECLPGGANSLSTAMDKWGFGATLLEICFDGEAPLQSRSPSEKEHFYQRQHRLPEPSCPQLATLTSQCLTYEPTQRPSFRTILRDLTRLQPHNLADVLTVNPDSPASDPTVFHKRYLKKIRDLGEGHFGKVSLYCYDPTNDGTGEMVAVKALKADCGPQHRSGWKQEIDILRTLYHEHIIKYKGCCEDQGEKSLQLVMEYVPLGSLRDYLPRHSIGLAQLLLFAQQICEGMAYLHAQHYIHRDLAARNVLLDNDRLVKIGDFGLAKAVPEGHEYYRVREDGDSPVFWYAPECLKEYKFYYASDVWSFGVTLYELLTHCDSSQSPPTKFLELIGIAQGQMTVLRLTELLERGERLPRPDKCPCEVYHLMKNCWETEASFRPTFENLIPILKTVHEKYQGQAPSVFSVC
# TGF-beta receptor type-2 (Homo sapiens), sequence (P37173 whole entry, the tested form may be a part): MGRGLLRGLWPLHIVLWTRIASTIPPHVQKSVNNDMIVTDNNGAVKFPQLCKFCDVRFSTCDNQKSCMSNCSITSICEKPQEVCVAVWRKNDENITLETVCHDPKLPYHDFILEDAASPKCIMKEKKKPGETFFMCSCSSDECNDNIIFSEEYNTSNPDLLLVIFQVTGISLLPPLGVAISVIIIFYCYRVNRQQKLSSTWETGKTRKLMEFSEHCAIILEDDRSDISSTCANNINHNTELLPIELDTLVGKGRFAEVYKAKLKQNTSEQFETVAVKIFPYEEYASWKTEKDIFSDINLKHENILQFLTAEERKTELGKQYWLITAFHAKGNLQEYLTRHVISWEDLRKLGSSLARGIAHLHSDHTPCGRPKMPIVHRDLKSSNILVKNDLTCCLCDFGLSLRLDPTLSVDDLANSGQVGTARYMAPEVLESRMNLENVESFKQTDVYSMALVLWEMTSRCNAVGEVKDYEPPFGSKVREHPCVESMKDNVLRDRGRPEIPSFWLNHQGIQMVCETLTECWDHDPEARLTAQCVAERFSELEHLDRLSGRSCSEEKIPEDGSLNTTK
smiles,measurement,setting,value
CC(C)Nc1sc(C(=O)c2ccc(Cl)s2)c(N)c1C#N,Activity,[1],88%
same,Activity,[2],66%
same,Activity,[3],97%
same,Activity,[4],96%
same,Activity,[5],94%
same,Activity,[6],89%
same,Activity,[7],93%
same,Activity,[8],89%
same,Activity,[9],90%
same,Activity,[10],100%
same,Activity,[11],100%
same,Activity,[12],89%
same,Activity,[13],81%
same,Activity,[14],55%
same,Activity,[15],100%
same,Activity,[16],76%
same,Activity,[17],100%
same,Activity,[18],68%
same,Activity,[19],54%
same,Activity,[20],100%
same,Activity,[21],100%
same,Activity,[22],95%
same,Activity,[23],79%
same,Activity,[24],89%
same,Activity,[25],87%
